The results in this text go back to patent US8362057B2, “Imidazolecarboxamide derivatives as fructose-1,6-bisphosphatase inhibitors, and pharmaceutical compositions comprising same” (Merck Patent Gesellschaft mit beschränkter Haftung, priority 2005, dated 2013).

This assay has as its target T1, human liver recombinant fructose-1,6-bisphosphatase (hFBPase) (Homo sapiens, UniProt P09467).
T1 sequence (P09467 1-338): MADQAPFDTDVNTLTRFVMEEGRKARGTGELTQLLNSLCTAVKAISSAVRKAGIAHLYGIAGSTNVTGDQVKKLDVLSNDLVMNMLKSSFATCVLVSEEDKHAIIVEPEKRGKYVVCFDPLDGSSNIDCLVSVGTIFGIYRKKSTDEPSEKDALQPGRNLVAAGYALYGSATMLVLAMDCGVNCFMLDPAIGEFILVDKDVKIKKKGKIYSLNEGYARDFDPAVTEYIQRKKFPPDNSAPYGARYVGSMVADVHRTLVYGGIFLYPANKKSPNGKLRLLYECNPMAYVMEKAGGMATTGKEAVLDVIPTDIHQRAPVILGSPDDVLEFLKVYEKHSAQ
The assay is described as follows: Inhibition of human liver recombinant fructose-1,6-bisphosphatase (spectrophotometric coupled PGI/G6PDH assay). As to conditions: human liver recombinant enzyme; 0.167 mM fructose-1,6-bisphosphate, pH 7.5, room temperature, 340 nm. In kind it is biochemical. As for the experimental part:
Method for Measuring the Inhibition of Human Liver Recombinant Fructose-1,6-bisphosphatase
The enzymatic activity is measured by using a spectrophotometric method by means of reactions coupling the formation of the product (fructose-6-phosphate) to the reduction of NADP+ via phosphoglucoisomerase (PGI) and glucose-6-phosphate dehydrogenase (G6PDH).
The reaction mixtures (250 μl) are prepared in 96-well plates and are composed of 20 mM triethanolamine, pH 7.5, 2 mM MgCl2, 0.1 mM EDTA, 40 mM ammonium sulfate, 0.5 mM NADP, 1 U/ml G6PDH, 1 U/ml PGI and 0.167 mM of substrate (fructose-1,6-bisphosphate).
The inhibitors are prepared at 10^−2 M in 100% DMSO and tested at 10^−5 M (DMSO 0.1% final).
The reactions are initiated by addition of human liver recombinant enzyme fructose-1,6-bisphosphatase (hFBPase) and monitored for 30 minutes at 340 nm, at room temperature, in a Tecan plate reader.
Turning to `CCCc1ccc(C(=O)Nc2[nH]c(Cc3ccc(C(=O)O)o3)nc2C(N)=O)cc1` [Example 6, 5-[4-Carbamoyl-5-(4-propylbenzoylamino)-1H-imidazol-2-ylmethyl]furan-2-carboxylic acid], the IC50 amounted to 28 µM.

Take `CC(C)(C)c1ccc(C(=O)Nc2[nH]c(Cc3ccc(C(=O)O)o3)nc2C(N)=O)cc1` [Example 6.8, 5-[5-(4-tert-Butylbenzoylamino)-4-carbamoyl-1H-imidazol-2-ylmethyl]furan-2-carboxylic acid]: the IC50 stood at 23 µM.

Take `CCCCCc1ccc(NC(=O)Nc2[nH]c(Cc3ccc(C(=O)O)o3)nc2C(N)=O)cc1` [Example 7.8, 5-{4-Carbamoyl-5-[3-(4-pentylphenyl)ureido]-1H-imidazol-2-ylmethyl}furan-2-carboxylic acid]: the concentration for half-maximal inhibition (IC50) was 24 µM.

In the case of `CC(C)c1cccc(C(C)C)c1NC(=O)Nc1[nH]c(Cc2ccc(C(=O)O)o2)nc1C(N)=O` [Example 7.9, 5-{4-Carbamoyl-5-[3-(2,6-diisopropylphenyl)ureido]-1H-imidazol-2-yl-methyl}furan-2-carboxylic acid], the IC50 was determined as 42 µM.

With `CC(C)(C)c1ccc(C(=O)Nc2[nH]c(Cc3ccc(C(=O)N4CCCC4)o3)nc2C(N)=O)cc1` [Example 8.5, 5-(4-tert-Butylbenzoylamino)-2-[5-(pyrrolidine-1-carbonyl)furan-2-yl-methyl]-1H-imidazole-4-carboxamide], the IC50 came out at 36 µM.
